Consider 36 compounds from ChEMBL document CHEMBL5576122, “Discovery of Novel Azaphenothiazine Derivatives to Suppress Endometrial Cancer by Targeting GRP75 to Impair Its Interaction with IP3R and Mitochondrial Ca2+ Homeostasis” (J Med Chem, 2024).

pIC50: −log10 of the molar value.

The subject of one data set is KLE. The data set is described as follows: Inhibition of cell proliferation in human KLE cells incubated for 48 hrs by CCK-8 assay.
Data set [1] is described as follows: in vitro. Conditions: human, liver microsomes.
A short description of data set [2]: in vitro. To be noted: plasma.
Description: Protein binding in plasma (unknown origin)
Data set [3] can be described thus: in vitro. Conditions: mouse, liver microsomes.
Data set [4] in a line: in vitro. To be noted: human, liver microsomes. The source holds these as a separate data set.
Data set [5] is described as follows: in vitro. To be noted: mouse, liver microsomes. This is another data set of the same source.
Description: Metabolic stability in mouse liver microsomes assessed as half life
Another data set relates to Ishikawa. The data set is described as follows: Inhibition of cell proliferation in human Ishikawa cells incubated for 48 hrs by CCK-8 assay.
A further data set concerns the target CYP2C19 (Homo sapiens, UniProt P33261). The data set is described as follows: Inhibition of CYP2C19 (unknown origin) at 10 uM relative to control. In kind it is ADME.
The target of the next data set is CYP2C9 (Homo sapiens, UniProt P11712). The data set can be described thus: Inhibition of CYP2C9 (unknown origin) at 10 uM relative to control. In kind it is ADME.
A further data set concerns the target T1, CYP1A2 (Homo sapiens, UniProt P05177).
T1 sequence (P05177 whole entry): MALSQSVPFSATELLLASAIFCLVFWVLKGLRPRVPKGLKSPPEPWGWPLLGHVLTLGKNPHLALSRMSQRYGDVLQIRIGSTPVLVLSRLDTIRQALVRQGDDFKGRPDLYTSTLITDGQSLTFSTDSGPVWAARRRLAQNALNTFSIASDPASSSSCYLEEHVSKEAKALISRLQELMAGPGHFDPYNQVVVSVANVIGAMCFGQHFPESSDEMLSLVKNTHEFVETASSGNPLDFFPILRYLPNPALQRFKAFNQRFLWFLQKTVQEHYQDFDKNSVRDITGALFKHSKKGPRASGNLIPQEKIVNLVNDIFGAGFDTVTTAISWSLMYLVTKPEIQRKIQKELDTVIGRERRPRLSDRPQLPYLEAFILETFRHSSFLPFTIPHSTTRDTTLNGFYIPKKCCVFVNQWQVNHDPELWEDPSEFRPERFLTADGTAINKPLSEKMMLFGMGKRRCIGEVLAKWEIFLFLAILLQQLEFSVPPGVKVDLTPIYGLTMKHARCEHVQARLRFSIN
The data set can be described thus: Inhibition of CYP1A2 (unknown origin) at 10 uM relative to control. In kind it is ADME.

The target of a further data set is CYP2D6 (Homo sapiens, UniProt P10635). The data set can be described thus: Inhibition of CYP2D6 (unknown origin) at 10 uM relative to control. In kind it is ADME.
The next data set deals with CYP3A4 (Homo sapiens, UniProt P08684). The data set is described as follows: Inhibition of CYP3A4 (unknown origin) at 10 uM relative to control. Format: ADME.
CYP3A4, sequence (P08684 whole entry): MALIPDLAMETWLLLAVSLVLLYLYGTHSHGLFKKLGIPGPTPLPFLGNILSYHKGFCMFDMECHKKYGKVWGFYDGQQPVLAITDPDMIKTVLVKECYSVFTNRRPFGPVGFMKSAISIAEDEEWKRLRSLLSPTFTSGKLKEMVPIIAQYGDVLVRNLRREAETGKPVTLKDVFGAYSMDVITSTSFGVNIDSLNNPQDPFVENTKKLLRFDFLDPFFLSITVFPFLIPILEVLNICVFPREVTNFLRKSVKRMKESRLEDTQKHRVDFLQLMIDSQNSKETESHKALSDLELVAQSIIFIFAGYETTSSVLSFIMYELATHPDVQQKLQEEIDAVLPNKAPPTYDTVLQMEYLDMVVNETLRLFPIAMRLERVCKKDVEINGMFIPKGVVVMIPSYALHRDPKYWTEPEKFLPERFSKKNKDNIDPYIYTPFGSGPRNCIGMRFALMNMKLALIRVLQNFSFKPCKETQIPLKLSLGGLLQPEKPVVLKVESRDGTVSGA

CYP2D6, sequence (P10635 whole entry): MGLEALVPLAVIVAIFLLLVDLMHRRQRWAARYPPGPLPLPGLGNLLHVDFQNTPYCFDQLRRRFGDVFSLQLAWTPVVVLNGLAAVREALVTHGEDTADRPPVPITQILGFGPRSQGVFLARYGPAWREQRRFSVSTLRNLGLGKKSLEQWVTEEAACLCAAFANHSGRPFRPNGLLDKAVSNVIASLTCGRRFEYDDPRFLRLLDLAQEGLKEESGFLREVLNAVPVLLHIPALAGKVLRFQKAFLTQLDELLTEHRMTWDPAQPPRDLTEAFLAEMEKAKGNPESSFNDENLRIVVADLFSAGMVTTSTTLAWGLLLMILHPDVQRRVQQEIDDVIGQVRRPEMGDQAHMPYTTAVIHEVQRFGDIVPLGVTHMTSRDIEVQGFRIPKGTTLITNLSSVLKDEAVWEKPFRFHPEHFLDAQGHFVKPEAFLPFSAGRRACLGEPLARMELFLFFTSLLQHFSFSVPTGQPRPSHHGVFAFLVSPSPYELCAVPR
CYP2C9, sequence (P11712 whole entry): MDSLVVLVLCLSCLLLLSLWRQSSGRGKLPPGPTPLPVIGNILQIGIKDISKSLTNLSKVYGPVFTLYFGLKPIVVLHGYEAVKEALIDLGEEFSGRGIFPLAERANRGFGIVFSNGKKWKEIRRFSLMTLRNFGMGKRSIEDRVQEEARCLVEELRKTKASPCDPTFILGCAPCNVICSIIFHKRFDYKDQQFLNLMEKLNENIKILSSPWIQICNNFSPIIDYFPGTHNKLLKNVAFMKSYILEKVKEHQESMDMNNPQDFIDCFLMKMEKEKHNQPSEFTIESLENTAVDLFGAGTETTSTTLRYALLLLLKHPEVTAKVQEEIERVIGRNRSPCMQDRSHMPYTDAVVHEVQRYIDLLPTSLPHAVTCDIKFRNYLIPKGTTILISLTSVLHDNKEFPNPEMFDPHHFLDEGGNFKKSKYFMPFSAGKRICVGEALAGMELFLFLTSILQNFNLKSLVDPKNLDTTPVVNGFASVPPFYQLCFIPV
CYP2C19, sequence (P33261 whole entry): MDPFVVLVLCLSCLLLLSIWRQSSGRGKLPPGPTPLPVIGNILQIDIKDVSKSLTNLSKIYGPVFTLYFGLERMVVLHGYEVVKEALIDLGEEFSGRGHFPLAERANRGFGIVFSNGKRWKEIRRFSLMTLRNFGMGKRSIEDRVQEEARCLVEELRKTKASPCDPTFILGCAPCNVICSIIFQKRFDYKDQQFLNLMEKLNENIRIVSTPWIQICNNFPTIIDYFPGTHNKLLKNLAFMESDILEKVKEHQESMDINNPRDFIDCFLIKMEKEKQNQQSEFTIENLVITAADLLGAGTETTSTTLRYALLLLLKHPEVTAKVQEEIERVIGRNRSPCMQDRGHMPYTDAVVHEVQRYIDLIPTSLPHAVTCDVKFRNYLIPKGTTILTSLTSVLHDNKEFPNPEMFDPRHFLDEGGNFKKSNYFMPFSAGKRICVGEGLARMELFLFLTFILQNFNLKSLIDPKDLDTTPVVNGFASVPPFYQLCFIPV

For the compound `CN(C)CCCN1c2ccccc2Sc2ccc(Cl)cc21.Cl` [CHLORPROMAZINE HYDROCHLORIDE], the pIC50 with KLE is 4.46; in the data set with Ishikawa, 4.66. Further, the CLint scaled in the data set “in vitro [1]” was 3.14 L/h/kg; in “in vitro [3]”, 43.4 L/h/kg. This compound showed a fraction unbound in the data set “in vitro [2]” of 0.0156. Moreover, the values for the half-life in the data set “in vitro [4]” and in the data set “in vitro [5]” were 23.8 min and 7.6 min, respectively.

For `C#CCN1CCC2(CC1)CCN(CCCCCN1c3cc(Cl)ccc3Sc3cccnc31)CC2`, the figures for the pIC50 with KLE and with Ishikawa were 5.08 and 5.34, respectively.

Compound `CC(C)(C)OC(=O)N1C2CC1CN(CCCCCN1c3cc(Cl)ccc3Sc3cccnc31)C2` showed a pIC50 with Ishikawa of 4.27.

Take `CC(C)(C)OC(=O)N1C[C@]2(C)C[C@@]1(C)CN2CCCCCN1c2cc(Cl)ccc2Sc2cccnc21`: the pIC50 in the data set on Ishikawa was 4.73.

On to `CC(C)(C)OC(=O)N1CCC2(CCCN(CCCCCN3c4cc(Cl)ccc4Sc4cccnc43)C2)CC1`, for which the pIC50 in the data set on Ishikawa is 4.32.

Regarding `CC(C)(C)OC(=O)N1CCC2(CCN(CCCCCN3c4cc(Cl)ccc4Sc4cccnc43)C2)CC1`, the pIC50 in the data set on Ishikawa is 4.93.

`CC(C)(C)OC(=O)N1CCC2(CN(CCCCCN3c4cc(Cl)ccc4Sc4cccnc43)C2)C1` showed a pIC50 with Ishikawa of 4.90.

With `CC(C)(C)OC(=O)N1CCC2(CCN(CCCCCN3c4cc(C(F)(F)F)ccc4Sc4cccnc43)CC2)CC1`, the pIC50 with KLE is 4.84; with Ishikawa, 5.17.

For `CC(C)(C)OC(=O)N1CCC2(CCN(CCCCCN3c4cc(Cl)ccc4Sc4cccnc43)CC2)CC1`, the values for the pIC50 with KLE and with Ishikawa were 5.02 and 5.27, respectively.

As to `Clc1ccc(CN2CCC3(CCN(CCCCCN4c5cc(Cl)ccc5Sc5cccnc54)CC3)CC2)cc1`, the pIC50 in the data set on KLE is 5.46; in the data set on Ishikawa, 5.59.

Regarding `CCCN1CCC2(CC1)CCN(CCCCCN1c3cc(Cl)ccc3Sc3cccnc31)CC2`, the pIC50 is 5.45 in the data set with KLE and 5.85 with Ishikawa.

As for `CC(C)(C)OC(=O)N1CCC2(CCN(CCCCN3c4cc(Cl)ccc4Sc4cccnc43)CC2)CC1`, the pIC50 in the data set with Ishikawa is 4.95.

In the data set on Ishikawa, `CC(C)(C)OC(=O)N1CCC2(CC1)CN(CCCCCN1c3cc(Cl)ccc3Sc3cccnc31)C2` showed a negative-log IC50 (pIC50) of 5.08.

Consider `CC(C)(C)OC(=O)N1CC2(CCN(CCCCCN3c4cc(Cl)ccc4Sc4cccnc43)C2)C1`, for which the pIC50 in the data set on Ishikawa is 4.84.

Consider `CN1CCC2(CC1)CCN(CCCCCN1c3cc(Cl)ccc3Sc3cccnc31)CC2`, for which the values for the pIC50 in the data set with KLE and in the data set on Ishikawa were 5.50 and 5.92, respectively.

`COc1ccc2c(c1)N(CCCCCN1CCC3(CCN(C)CC3)CC1)c1ncccc1S2`: the inhibition at 10 µM against CYP2C19 is 7.5%; against CYP2C9, 7%; on CYP1A2 it was 0%; against CYP2D6, 14.8%; on CYP3A4 it was 20%.

As to `CC(C)(C)OC(=O)N1CCC2(CCN(CCCCCN3c4cc(Cl)ccc4Sc4cccnc43)CC2)C1`, the pIC50 was 4.97 in the data set on KLE and 3.13 in the data set with Ishikawa.

Turning to `CC(C)(C)OC(=O)N1CCC2(CC1)CCN2CCCCCN1c2cc(Cl)ccc2Sc2cccnc21`, the pIC50 in the data set on KLE and in the data set with Ishikawa was 5.21 throughout.

In the data set on Ishikawa, `CCN(CC)c1ccc2c(c1)N(CCCCCN1CCC3(CCN(C)CC3)CC1)c1ncccc1S2` had a pIC50 of 4.76.

In the case of `CN1CCC2(CC1)CCN(CCCCCN1c3cc(OCc4ccccc4)ccc3Sc3cccnc31)CC2`, the pIC50 with Ishikawa is 4.83.

`O=C1CC2(CCN(Cc3ccccc3)CC2)CC(=O)N1CCCCCN1c2cc(Cl)ccc2Sc2cccnc21` had a pIC50 in the data set with Ishikawa of 4.56.

Consider `CC(=O)N1CCC2(CCN(CCCCCN3c4cc(Cl)ccc4Sc4cccnc43)CC2)CC1`, for which, in the data set with Ishikawa, the pIC50 is 4.98.

Consider `CC(C)(C)OC(=O)N1CCC2(CC1)CN(CCCCCN1c3cc(Cl)ccc3Sc3cccnc31)CCO2`, for which the pIC50 with Ishikawa is 4.34.

In the data set with Ishikawa, `CC(C)(C)OC(=O)N1CCC2(CCN(CCCCCN3c4cc(Cl)ccc4Sc4cccnc43)C2)C1` (centres undefined) showed a pIC50 of 4.96.

With `CC(C)(C)OC(=O)N1CCC2(CCCN2CCCCCN2c3cc(Cl)ccc3Sc3cccnc32)CC1`, the pIC50 in the data set with Ishikawa was 4.88.

On to `Clc1ccc2c(c1)N(CCCCCN1CCC3(CC1)CCN(Cc1ccccc1)CC3)c1ncccc1S2`, for which the figures for the pIC50 in the data set with KLE and with Ishikawa were 5.40 and 5.62, respectively.

In the case of `COc1ccc2c(c1)N(CCCCCN1CCC3(CC1)CCN(C(=O)OC(C)(C)C)CC3)c1ncccc1S2`, the results for the pIC50 in the data set with KLE and in the data set on Ishikawa were 5.09 and 5.40, respectively.

In the data set on Ishikawa, `CC(C)(C)OC(=O)N1CC2(CN(CCCCCN3c4cc(Cl)ccc4Sc4cccnc43)C2)C1` showed a pIC50 of 4.91.

`CC(C)(C)OC(=O)N1CC2CC1CN2CCCCCN1c2cc(Cl)ccc2Sc2cccnc21` (centres undefined) had a pIC50 in the data set on Ishikawa of 4.67.

As to `Clc1ccc2c(c1)N(CCCCCN1CCC3(CC1)CCN(Cc1ccccn1)CC3)c1ncccc1S2`, the pIC50 in the data set on Ishikawa was 4.89.

Consider `CC(C)(C)OC(=O)N1CCC2(CCN(CCCCCN3c4ccccc4Sc4cccnc43)CC2)CC1`, for which the values for the pIC50 in the data set with KLE and with Ishikawa were 5.00 and 5.22, respectively.

Compound `CC(C)(C)OC(=O)N1CC2(CCN(CCCCCN3c4cc(Cl)ccc4Sc4cccnc43)CC2)C1` had a pIC50 in the data set on Ishikawa of 4.94.

As to `CC(C)(C)OC(=O)N1CCCC12CCN(CCCCCN1c3cc(Cl)ccc3Sc3cccnc31)CC2`, the pIC50 was 5.07 in the data set with KLE and 5.13 in the data set on Ishikawa.

On to `O=C1CC2(CCN(CCCCCN3c4cc(Cl)ccc4Sc4cccnc43)CC2)C(=O)N1`, for which the pIC50 in the data set with Ishikawa is 4.84.

`Clc1ccc2c(c1)N(CCCCCN1CCC3(CCNCC3)CC1)c1ncccc1S2`: the pIC50 is 5.54 with KLE and 5.77 in the data set with Ishikawa.

With `CC(C)(C)OC(=O)N1CCC2(CCN(CCCCCCN3c4cc(Cl)ccc4Sc4cccnc43)CC2)CC1`, the pIC50 in the data set on Ishikawa was 4.88.
